Test results published in US20230167127A1, “COMPOUNDS AND THEIR USE IN THE TREATMENT OF BACTERIAL INFECTION” (Hoffmann-La Roche Inc., priority 2020, published 2023).
Where two headings read alike, the source gives them in different places.

System: Escherichia coli ATCC 25922
Test: 50% growth inhibitory concentration (IC50) determination, Iso-Sensitest broth dilution
Format: cell-based
Conditions: strain Escherichia coli ATCC 25922, 10-point broth dilution, optical density at 600 nm over 16 h, read-out: Escherichia coli growth inhibition IC50
Protocol: 50% Growth Inhibitory Concentration (IC50) Determination
The in vitro antimicrobial activity of the compounds was determined according to the following procedure:
The assay used a 10-point Iso-Sensitest broth dilution method to measure quantitatively the in vitro
ATCC 25922, Acinetobacter baumannii ATCC 17961, Klebsiella pneumoniae ATCC 43816 and Staphylococcus aureus ATCC 29213.
Stock compounds in DMSO were serially twofold diluted (e.g. range from 50 to 0.097 μM final concentration) in 384 wells microtiter plates and inoculated with 50 μL of the bacterial suspension in Iso-
ell of 50 μL/well. Microtiter plates were incubated at 35±2° C.
Bacterial cell growth was determined with the measurement of optical density at λ=600 nm each 20 minutes over a time course of 16 h.
Growth inhibition was calculated during the logarithmic growth of the bacterial cells with
Table 1 provides the 50% growth inhibitory concentrations (IC50) in micromoles per liter of the compounds of present invention obtained against the strain Escherichia coli ATCC 25922.

[1] = Escherichia coli, ATCC25922, 16 h

**Q.** For `Cc1ncc(F)c2c1C[C@H](CNCC[C@H]1CN(c3cnc4c(n3)NC(=O)CO4)C(=O)O1)C2` [Example 429], which IC50 [1] is on record?
**A.** < 97.7 nM

**Q.** For `O=C1COc2ccc(N3CC(CNC4Cc5ccc(Cl)cc5C4)OC3=O)nc2N1` (centres unmarked) [Example 25, 6-[5-[[(5-chloro-2,3-dihydro-1H-inden-2-yl)amino]methyl]-2-oxo-1,3-oxazolidin-3-yl]-4H-pyrido[3,2-b] [1,4]oxazin-3-one], which IC50 [1] is on record?
**A.** 4070 nM

**Q.** For `NC1c2cccc(Cl)c2CC1CNCCc1cn(-c2cnc3c(n2)NC(=O)CO3)c(=O)o1` (racemic) [Example 359, 6-[5-[2-[(rac-1,2-trans-1-amino-4-chloro-2,3-dihydro-1H-inden-2-yl)methylamino]ethyl]-2-oxo-1,3-oxazol-3-yl]-4H-pyrazino[2,3-b][1,4]oxazin-3-one; formic acid], which IC50 [1] is on record?
**A.** < 97.7 nM

**Q.** How did the IC50 [1] turn out when `N#Cc1cccc2c1CC(CNCCC1CN(c3ccc4c(n3)NC(=O)CS4)C(=O)O1)C2` (centres unmarked) [Example 64, 2-[[2-[2-oxo-3-(3-oxo-4H-pyrido[3,2-b][1,4]thiazin-6-yl)-1,3-oxazolidin-5-yl]ethylamino]methyl]-2,3-dihydro-1H-indene-4-carbonitrile] was run?
**A.** < 97.7 nM

**Q.** For `N#Cc1cc(OCC2(N)CC2)cc2c1CC(CNCCC1CN(c3cnc4c(n3)NC(=O)CO4)C(=O)O1)C2` (centres unmarked) [Example 186, 6-((1-aminocyclopropyl)methoxy)-2-(((2-(2-oxo-3-(3-oxo-3,4-dihydro-2H-pyrazino[2,3-b][1,4]oxazin-6-yl)oxazolidin-5-yl)ethyl)amino)methyl)-2,3-dihydro-1H-indene-4-carbonitrile], which IC50 [1] is on record?
**A.** < 97.7 nM

**Q.** `Cc1nc(OCC2CNC(=O)CO2)c(C)c2c1CC(CNCCC1CN(c3ccc4c(n3)NC(=O)CO4)C(=O)O1)C2` (centres unmarked) [Example 101, 6-[5-[2-[[1,4-dimethyl-3-[(5-oxomorpholin-2-yl)methoxy]-6,7-dihydro-5H-cyclopenta[c]pyridin-6-yl]methylamino]ethyl]-2-oxo-1,3-oxazolidin-3-yl]-4H-pyrido[3,2-b][1,4]oxazin-3-one] was tested. Which IC50 [1] did it give?
**A.** 1390 nM

**Q.** With `O=C1COc2ncc(N3CC(CCNCC4Cc5cc(OCC(=O)NC6CC6)cc(F)c5C4)OC3=O)nc2N1` (centres unmarked) [Example 346, N-cyclopropyl-2-[[7-fluoro-2-[[2-[2-oxo-3-(3-oxo-4H-pyrazino[2,3-b][1,4]oxazin-6-yl)-1,3-oxazolidm-5-yl]ethylamino]methyl]-2,3-dihydro-1H-inden-5-yl]oxy]acetamide; formic acid] as the molecule, how does the IC50 [1] read?
**A.** 311 nM

**Q.** How did the IC50 [1] turn out when `NC1c2cccc(Cl)c2CC1CNCCc1nn(-c2ccc3c(c2)NC(=O)CO3)c(=O)o1` (racemic) [Example 147, 6-[2-oxo-5-[2-[[rac-1,2-trans-1-amino-4-chloro-2,3-dihydro-1H-inden-2-yl]methylamino]ethyl]-1,3,4-oxadiazol-3-yl]-4H-1,4-benzoxazin-3-one; formic acid] was run?
**A.** < 97.7 nM

**Q.** Which IC50 does the source give for `NC(=O)COc1cc(F)c2c(c1)CC(CNCC[C@@H]1CN(c3cnc4c(n3)NC(=O)CO4)C(=O)O1)C2` (single isomer, unassigned; isomer b) [Example 382] here?
**A.** 158 nM

**Q.** How did the IC50 [1] turn out when `Cc1c(OCC(=O)NC(C)C)ncc2c1CC(CNCCC1CN(c3ccc4c(n3)NC(=O)CO4)C(=O)O1)C2` (centres unmarked) [Example 224, N-isopropyl-2-((4-methyl-6-(((2-(2-oxo-3-(3-oxo-3,4-dihydro-2H-pyrido[3,2-b][1,4]oxazin-6-yl)oxazolidin-5-yl)ethyl)amino)methyl)-6,7-dihydro-5H-cyclopenta[c]pyridin-3-yl)oxy)acetamide] was run?
**A.** 791 nM

**Q.** For `Cc1nc(OCc2cc[nH]n2)c(F)c2c1CC(CNCCC1CN(c3cnc4c(n3)NC(=O)CO4)C(=O)O1)C2` (centres unmarked) [Example 415], which IC50 [1] is on record?
**A.** 221 nM

**Q.** How did the IC50 [1] turn out when `O=C1COc2ccc(N3CC(CCNCC4Cc5c(Cl)cccc5C4O)OC3=O)nc2N1` (racemic) [Example 230, 6-[2-Oxo-5-[2-[[rac-1,2-trans-4-chloro-1-hydroxy-2,3-dihydro-1H-inden-2-yl]methylamino]ethyl]-1,3-oxazolidin-3-yl]-4H-pyrido[3,2-b][1,4]oxazin-3-one] was run?
**A.** < 97.7 nM

**Q.** For `N[C@@H]1c2cccc(Cl)c2C[C@H]1CN1CCC2(CC1)CN(c1cnc3c(n1)NC(=O)CO3)C(=O)O2` (racemic) [Example 259, 6-[2-Oxo-8-[[rac-1,2-trans-1-amino-4-chloro-2,3-dihydro-1H-inden-2-yl]methyl]-1-oxa-3,8-diazaspiro[4.5]decan-3-yl]-4H-pyrazino[2,3-b][1,4]oxazin-3-one; formic acid], which IC50 [1] is on record?
**A.** < 97.7 nM

**Q.** `NC1c2cccc(F)c2CC1CNCCC1CN(c2ccc3c(n2)NC(=O)CO3)C(=O)O1` (racemic) [Example 163, 6-[5-[2-[(rac-1,2-trans-1-amino-4-fluoro-2,3-dihydro-1H-inden-2-yl)methylamino]ethyl]-2-oxo-1,3-oxazolidin-3-yl]-4H-pyrido[3,2-b][1,4]oxazin-3-one] was tested. Which IC50 [1] did it give?
**A.** 131 nM

**Q.** Which IC50 [1] does the source give for `O=C1COc2ccc(N3CC(CNCCC4Cc5cccc(Cl)c5C4)OC3=O)nc2N1` (centres unmarked) [Example 26, 6-[5-[ [2-(4-chloro-2,3-dihydro-1H-inden-2-yl)ethylamino]methyl]-2-oxo-1,3-oxazolidin-3-yl]-4H-pyrido[3,2-b][1,4]oxazin-3-one; formic acid] here?
**A.** < 97.7 nM

**Q.** Which IC50 [1] does the source give for `N#Cc1cccc2c1CC(CN1CCC3(CC1)CN(c1ccc4c(n1)NC(=O)CO4)C(=O)O3)C2N` (racemic) [Example 131, rac-1,2-trans-1-amino-2-[[2-oxo-3-(3-oxo-4H-pyrido[3,2-b][1,4]oxazin-6-yl)-1-oxa-3,8-diazaspiro[4.5]decan-8-yl]methyl]-2,3-dihydro-1H-indene-4-carbonitrile; formic acid] here?
**A.** 240 nM

**Q.** `Cc1nc(OCCN)cc2c1CC(CNCCC1CN(c3ccc4c(n3)NC(=O)CO4)C(=O)O1)C2` (centres unmarked) [Example 209, 6-[5-[2-[[3-(2-aminoethoxy)-1-methyl-6,7-dihydro-5H-cyclopenta[c]pyridin-6-yl]methylamino]ethyl]-2-oxo-1,3-oxazolidin-3-yl]-4H-pyrido[3,2-b][1,4]oxazin-3-one] was tested. Which IC50 [1] did it give?
**A.** 845 nM

**Q.** Which IC50 [1] does the source give for `N#Cc1cccc2c1CC(NCCCC1CN(c3ccc4c(n3)NC(=O)CO4)C(=O)O1)C2` (centres unmarked) [Example 13, 2-[3-[2-oxo-3-(3-oxo-4H-pyrido[3,2-b] [1,4]oxazin-6-yl)-1,3-oxazolidin-5-yl]propylamino]-2,3-dihydro-1H-indene-4-carbonitrile; formic acid] here?
**A.** < 97.7 nM

**Q.** Which IC50 [1] does the source give for `N#Cc1cccc2c1CC(NCCCC1CN(c3cnc4c(n3)NC(=O)CO4)C(=O)O1)C2` (centres unmarked) [Example 80, 2-[3-[2-oxo-3-(3-oxo-4H-pyrazino[2,3-b][1,4]oxazin-6-yl)-1,3-oxazolidin-5-yl]propylamino]-2,3-dihydro-1H-indene-4-carbonitrile] here?
**A.** < 97.7 nM

**Q.** `NC1c2cccc(F)c2CC1CNCCC1CN(c2ccc3c(n2)NC(=O)CS3)C(=O)O1` (racemic) [Example 165, 5-[2-[(rac-1,2-trans-1-amino-4-fluoro-2,3-dihydro-1H-inden-2-yl)methylamino]ethyl]-3-(3-oxo-4H-pyrido[3,2-b][1,4]thiazin-6-yl)-1,3-oxazolidin-2-one; formic acid] was tested. Which IC50 [1] did it give?
**A.** < 97.7 nM

**Q.** Which IC50 [1] does the source give for `O=C1COc2ccc(N3CC(CCNCC4Cc5ccnc(Cl)c5C4)OC3=O)nc2N1` (centres unmarked) [Example 86, 6-[5-[2-[(1-chloro-6,7-dihydro-5H-cyclopenta[c]pyridin-6-yl)methylamino]ethyl]-2-oxo-1,3-oxazolidin-3-yl]-4H-pyrido[3,2-b][1,4]oxazin-3-one] here?
**A.** 134 nM

**Q.** `N[C@@H]1c2cccc(Cl)c2C[C@H]1CNCC[C@H]1CN(c2cnc3c(n2)NC(=O)CO3)C(=O)O1` [Example 402, 6-[(5S)-5-[2-[[(1S,2S)-1-amino-4-chloro-2,3-dihydro-1H-inden-2-yl]methylamino]ethyl]-2-oxo-1,3-oxazolidin-3-yl]-4H-pyrazino[2,3-b][1,4]oxazin-3-one] was tested. Which IC50 [1] did it give?
**A.** < 97.7 nM

**Q.** `N#Cc1cccc2c1CC(N[C@H]1CC[C@H](C3CN(c4ccc5c(n4)NC(=O)CO5)C(=O)O3)CC1)C2` (stereo partly drawn) [Example 34, 2-[[trans-4-[2-oxo-3-(3-oxo-4H-pyrido[3,2-b][1,4]oxazin-6-yl)-1,3-oxazolidin-5-yl]cyclohexyl]amino]-2,3-dihydro-1H-indene-4-carbonitrile; formic acid] was tested. Which IC50 [1] did it give?
**A.** 1660 nM

**Q.** `Cc1c(OCC2CNC(=O)CN2)nc(C#N)c2c1CC(CN1CCC3(CC1)CN(c1ccc4c(n1)NC(=O)CO4)C(=O)O3)C2` (centres unmarked) [Example 220, 4-methyl-6-((2-oxo-3-(3-oxo-3,4-dihydro-2H-pyrido[3,2-b][1,4]oxazin-6-yl)-1-oxa-3,8-diazaspiro[4.5]decan-8-yl)methyl)-3-((5-oxopiperazin-2-yl)methoxy)-6,7-dihydro-5H-cyclopenta[c]pyridine-1-carbonitrile] was tested. Which IC50 [1] did it give?
**A.** 319 nM

**Q.** How did the IC50 [1] turn out when `NCCOc1ccc2c(c1Cl)CC(CNCCC1CN(c3ccc4c(n3)NC(=O)CO4)C(=O)O1)C2` (centres unmarked) [Example 116, 6-[5-[2-[[5-(2-Aminoethoxy)-4-chloro-2,3-dihydro-1H-inden-2-yl]methylamino]ethyl]-2-oxo-1,3-oxazolidin-3-yl]-4H-pyrido[3,2-b][1,4]oxazin-3-one] was run?
**A.** < 97.7 nM

**Q.** How did the IC50 [1] turn out when `N#Cc1c(OCCN)ccc2c1CC(CNCCC1CN(c3ccc4c(n3)NC(=O)CO4)C(=O)O1)C2` (centres unmarked) [Example 128, 5-(2-aminoethoxy)-2-[[2-[2-oxo-3-(3-oxo-4H-pyrido[3,2-b][1,4]oxazin-6-yl)-1,3-oxazolidin-5-yl]ethylamino]methyl]-2,3-dihydro-1H-indene-4-carbonitrile; formic acid] was run?
**A.** 98.1 nM
